Laboratory results taken from US20090018111A1, “Novel Antimicrobial Medicament” (priority 2004, published 2009).
Where two headings read alike, the source gives them in different places.

Columns and labels:
Test in all cases: Sensitivity test (agar dilution), clinical isolate
[1] = system: Acinetobacter spp. 1398-2; type: cell-based, Acinetobacter calcoaceticus and Acinetobacter lwoffi
Experimental: (§1) In addition, the antibacterial activities were tested against strains which are comparatively less sensitive to β-lactam compounds, namely clinically isolated 13 strains of Acinetobacter calcoaceticus and Acinetobacter lwoffi, clinically isolated 11 strains of Serratia marcescens, clinically isolated 12 strains of Burkholderia cepacia, and clinically isolated 15 strains of Pseudomonas aeruginosa.
(§2) According to the standard method of Japan Chemotherapeutic Society (Chemotherapy, vol. […], p 76-79 (1981)) the test was carried out using the agar dilution method. After dissolving test samples in distilled water, agar medium containing the test samples was prepared in such a manner that the final concentration became twice serial dilution by pouring serially diluted combination drug solution or a single drug solution into agar medium. As agar medium was used Mueller Hinton Agar medium (MHA). Then, each strain was cultivated over night at 37° C. in an incubator and suspended in buffered saline solution with gelatin (BSG) in the concentration of about 10^6 CFU/ml. The suspension (about 5 μl) containing test strains was inoculated to the medium containing the test samples by Micro Planter.
(§3) Each drug was weighed, and dissolved in distilled water to give a test sample. When the drugs are used in combination, two kinds of solution containing each drug were mixed so as to be various ratio of concentration to give a mixed solution. When the sample is subjected to sensitivity test, this mixed solution was diluted by twice serial dilution method.
(§4) Furthermore, when the drug is solely used, each test sample was used as it is, and diluted by twice serial dilution method from the maximum concentration to the minimum concentration.

Acinetobacter spp. 227-1 = type: cell-based, Acinetobacter calcoaceticus and Acinetobacter lwoffi
Experimental: as §1, §2, §3, §4

[2] = system: Acinetobacter spp. Jan-99 (second line, r15); type: cell-based, Acinetobacter calcoaceticus and Acinetobacter lwoffi
Experimental: as §1, §2, §3, §4

P. aeruginosa 13221 = type: cell-based, Pseudomonas aeruginosa
Experimental: as §1, §2, §3, §4

P. aeruginosa 13224 = type: cell-based, Pseudomonas aeruginosa
Experimental: as §1, §2, §3, §4

P. aeruginosa 13245 = type: cell-based, Pseudomonas aeruginosa
Experimental: as §1, §2, §3, §4

P. aeruginosa 13250 = type: cell-based, Pseudomonas aeruginosa
Experimental: as §1, §2, §3, §4

P. aeruginosa 13269 = type: cell-based, Pseudomonas aeruginosa
Experimental: as §1, §2, §3, §4

P. aeruginosa 13272 = type: cell-based, Pseudomonas aeruginosa
Experimental: as §1, §2, §3, §4

P. aeruginosa 13280 = type: cell-based, Pseudomonas aeruginosa
Experimental: as §1, §2, §3, §4

P. aeruginosa 13285 = type: cell-based, Pseudomonas aeruginosa
Experimental: as §1, §2, §3, §4

P. aeruginosa 15019 = type: cell-based, Pseudomonas aeruginosa
Experimental: as §1, §2, §3, §4

P. aeruginosa 15032 = type: cell-based, Pseudomonas aeruginosa
Experimental: as §1, §2, §3, §4

P. aeruginosa 15036 = type: cell-based, Pseudomonas aeruginosa
Experimental: as §1, §2, §3, §4

P. aeruginosa 15039 = type: cell-based, Pseudomonas aeruginosa
Experimental: as §1, §2, §3, §4

C[C@@H](O)[C@H]1C(=O)N2C(C(=O)O)=C(S[C@@H]3CN[C@H](C(=O)N(C)C)C3)[C@H](C)[C@H]12 [MEPM, meropenem]
MIC ([1]; SPP.13982, Concomitant (ME:SM = 1:1)): 2 µg/mL | MIC ([1]; SPP.13982, Concomitant (ME:SM = 1:2)): 2 µg/mL | MIC ([1]; SPP.13982, Concomitant (ME:SM = 1:4)): 1 µg/mL | MIC ([1]; SPP.13982, Concomitant (ME:SM = 2:1)): 4 µg/mL | MIC ([1]; SPP.13982, alone): 32 µg/mL | MIC (Acinetobacter spp. 227-1; SPP.2271, Concomitant (ME:SM = 1:1)): 0.5 µg/mL | MIC (Acinetobacter spp. 227-1; SPP.2271, Concomitant (ME:SM = 1:2)): 0.5 µg/mL | MIC (Acinetobacter spp. 227-1; SPP.2271, Concomitant (ME:SM = 1:4)): 0.25 µg/mL | MIC (Acinetobacter spp. 227-1; SPP.2271, Concomitant (ME:SM = 2:1)): 0.5 µg/mL | MIC (Acinetobacter spp. 227-1; SPP.2271, alone): 1 µg/mL | MIC [2]: 0.125 µg/mL | MIC ([2]; Concomitant (ME:SM = 1:1), read-out: MIC): 0.5 µg/mL | MIC ([2]; Concomitant (ME:SM = 1:2), read-out: MIC): 0.25 µg/mL | MIC ([2]; Concomitant (ME:SM = 2:1), read-out: MIC): 0.5 µg/mL | MIC ([2]; alone, read-out: MIC): 0.5 µg/mL | MIC (P. aeruginosa 13221; Concomitant (ME:SM = 1:1)): 0.125 µg/mL | MIC (P. aeruginosa 13221; Concomitant (ME:SM = 1:2)): 0.125 µg/mL | MIC (P. aeruginosa 13221; Pseudomonas aeruginosa, 13221): 0.125 µg/mL | MIC (P. aeruginosa 13221; Pseudomonas aeruginosa, 13221, Concomitant (ME:SM = 1:4), read-out: MIC): 0.063 µg/mL | MIC (P. aeruginosa 13221; Pseudomonas aeruginosa, 13221, Concomitant (ME:SM = 2:1), read-out: MIC): 0.063 µg/mL | MIC (P. aeruginosa 13224; Pseudomonas aeruginosa, 13224, Concomitant (ME:SM = 1:1)): 4 µg/mL | MIC (P. aeruginosa 13224; Pseudomonas aeruginosa, 13224, Concomitant (ME:SM = 1:2)): 2 µg/mL | MIC (P. aeruginosa 13224; Pseudomonas aeruginosa, 13224, Concomitant (ME:SM = 1:4)): 2 µg/mL | MIC (P. aeruginosa 13224; Pseudomonas aeruginosa, 13224, Concomitant (ME:SM = 2:1)): 4 µg/mL | MIC (P. aeruginosa 13224; Pseudomonas aeruginosa, 13224, alone): 4 µg/mL | MIC (P. aeruginosa 13245; Pseudomonas aeruginosa, 13245, Concomitant (ME:SM = 1:1)): 2 µg/mL | MIC (P. aeruginosa 13245; Pseudomonas aeruginosa, 13245, Concomitant (ME:SM = 1:2)): 1 µg/mL | MIC (P. aeruginosa 13245; Pseudomonas aeruginosa, 13245, Concomitant (ME:SM = 1:4)): 2 µg/mL | MIC (P. aeruginosa 13245; Pseudomonas aeruginosa, 13245, Concomitant (ME:SM = 2:1)): 2 µg/mL | MIC (P. aeruginosa 13245; Pseudomonas aeruginosa, 13245, alone): 2 µg/mL | MIC (P. aeruginosa 13250; Pseudomonas aeruginosa, 13250, Concomitant (ME:SM = 1:1)): 0.5 µg/mL | MIC (P. aeruginosa 13250; Pseudomonas aeruginosa, 13250, Concomitant (ME:SM = 1:2)): 0.25 µg/mL | MIC (P. aeruginosa 13250; Pseudomonas aeruginosa, 13250, Concomitant (ME:SM = 1:4)): 0.5 µg/mL | MIC (P. aeruginosa 13250; Pseudomonas aeruginosa, 13250, Concomitant (ME:SM = 2:1)): 0.5 µg/mL | MIC (P. aeruginosa 13250; Pseudomonas aeruginosa, 13250, alone): 0.5 µg/mL | MIC (P. aeruginosa 13269; Pseudomonas aeruginosa, 13269, Concomitant (ME:SM = 1:1)): 4 µg/mL | MIC (P. aeruginosa 13269; Pseudomonas aeruginosa, 13269, Concomitant (ME:SM = 1:2)): 2 µg/mL | MIC (P. aeruginosa 13269; Pseudomonas aeruginosa, 13269, Concomitant (ME:SM = 1:4)): 2 µg/mL | MIC (P. aeruginosa 13269; Pseudomonas aeruginosa, 13269, Concomitant (ME:SM = 2:1)): 4 µg/mL | MIC (P. aeruginosa 13269; Pseudomonas aeruginosa, 13269, alone): 4 µg/mL | MIC (P. aeruginosa 13272; Pseudomonas aeruginosa, 13272, Concomitant (ME:SM = 1:1)): 4 µg/mL | MIC (P. aeruginosa 13272; Pseudomonas aeruginosa, 13272, Concomitant (ME:SM = 1:2)): 2 µg/mL | MIC (P. aeruginosa 13272; Pseudomonas aeruginosa, 13272, Concomitant (ME:SM = 1:4)): 2 µg/mL | MIC (P. aeruginosa 13272; Pseudomonas aeruginosa, 13272, Concomitant (ME:SM = 2:1)): 4 µg/mL | MIC (P. aeruginosa 13272; Pseudomonas aeruginosa, 13272, alone): 4 µg/mL | MIC (P. aeruginosa 13280; Pseudomonas aeruginosa, 13280, Concomitant (ME:SM = 1:1)): 4 µg/mL | MIC (P. aeruginosa 13280; Pseudomonas aeruginosa, 13280, Concomitant (ME:SM = 1:2)): 4 µg/mL | MIC (P. aeruginosa 13280; Pseudomonas aeruginosa, 13280, Concomitant (ME:SM = 1:4)): 4 µg/mL | MIC (P. aeruginosa 13280; Pseudomonas aeruginosa, 13280, Concomitant (ME:SM = 2:1)): 8 µg/mL | MIC (P. aeruginosa 13280; Pseudomonas aeruginosa, 13280, alone): 8 µg/mL | MIC (P. aeruginosa 13285; Pseudomonas aeruginosa, 13285, Concomitant (ME:SM = 1:1)): 4 µg/mL | MIC (P. aeruginosa 13285; Pseudomonas aeruginosa, 13285, Concomitant (ME:SM = 1:2)): 4 µg/mL | MIC (P. aeruginosa 13285; Pseudomonas aeruginosa, 13285, Concomitant (ME:SM = 1:4)): 4 µg/mL | MIC (P. aeruginosa 13285; Pseudomonas aeruginosa, 13285, Concomitant (ME:SM = 2:1)): 4 µg/mL | MIC (P. aeruginosa 13285; Pseudomonas aeruginosa, 13285, alone): 4 µg/mL | MIC (P. aeruginosa 15019; Pseudomonas aeruginosa, 15019, Concomitant (ME:SM = 1:1)): 4 µg/mL | MIC (P. aeruginosa 15019; Pseudomonas aeruginosa, 15019, Concomitant (ME:SM = 1:2)): 4 µg/mL | MIC (P. aeruginosa 15019; Pseudomonas aeruginosa, 15019, Concomitant (ME:SM = 1:4)): 2 µg/mL | MIC (P. aeruginosa 15019; Pseudomonas aeruginosa, 15019, Concomitant (ME:SM = 2:1)): 4 µg/mL | MIC (P. aeruginosa 15019; Pseudomonas aeruginosa, 15019, alone): 4 µg/mL | MIC (P. aeruginosa 15032; Pseudomonas aeruginosa, 15032, Concomitant (ME:SM = 1:1)): 2 µg/mL | MIC (P. aeruginosa 15032; Pseudomonas aeruginosa, 15032, Concomitant (ME:SM = 1:2)): 1 µg/mL | MIC (P. aeruginosa 15032; Pseudomonas aeruginosa, 15032, Concomitant (ME:SM = 1:4)): 2 µg/mL | MIC (P. aeruginosa 15032; Pseudomonas aeruginosa, 15032, Concomitant (ME:SM = 2:1)): 2 µg/mL | MIC (P. aeruginosa 15032; Pseudomonas aeruginosa, 15032, alone): 2 µg/mL | MIC (P. aeruginosa 15036; Pseudomonas aeruginosa, 15036, Concomitant (ME:SM = 1:1)): 2 µg/mL | MIC (P. aeruginosa 15036; Pseudomonas aeruginosa, 15036, Concomitant (ME:SM = 1:2)): 1 µg/mL | MIC (P. aeruginosa 15036; Pseudomonas aeruginosa, 15036, Concomitant (ME:SM = 1:4)): 2 µg/mL | MIC (P. aeruginosa 15036; Pseudomonas aeruginosa, 15036, Concomitant (ME:SM = 2:1)): 2 µg/mL | MIC (P. aeruginosa 15036; Pseudomonas aeruginosa, 15036, alone): 2 µg/mL | MIC (P. aeruginosa 15039; Pseudomonas aeruginosa, 15039, Concomitant (ME:SM = 1:1)): 8 µg/mL | MIC (P. aeruginosa 15039; Pseudomonas aeruginosa, 15039, Concomitant (ME:SM = 1:2)): 8 µg/mL | MIC (P. aeruginosa 15039; Pseudomonas aeruginosa, 15039, Concomitant (ME:SM = 1:4)): 4 µg/mL | MIC (P. aeruginosa 15039; Pseudomonas aeruginosa, 15039, Concomitant (ME:SM = 2:1)): 8 µg/mL | MIC (P. aeruginosa 15039; Pseudomonas aeruginosa, 15039, alone): 8 µg/mL
